Measured values as given in patent US11339171B2, “MDM2 inhibitors” (Gan & Lee Pharmaceuticals, priority 2017, dated 2022).
Values joined by “and” are separate entries in the source; they are usually repeats but may differ in a detail not shown here. Equal values may be shown once. Read-outs that look alike come from different tables or passages of the source.

Key:
[1] = test system: human osteosarcoma cell line SJSA-1; assay: Inhibition of proliferation of human osteosarcoma cell line SJSA-1 (DAPI staining, In Cell Analyzer); details: Homo sapiens, SJSA-1, 72 h, read-out: IC50 (nM), inhibitory activity on proliferation of human osteosarcoma cell line SJSA-1, SJSA-1, incubated 72 h
MDM2 = molecular target: T1, MDM2 (Homo sapiens, UniProt Q00987); assay: Inhibition test of MDM2-P53 (GST-MDM2, Biotin-P53, Anti-GST-Tb, SA-XL665); format: binding
T1 construct: made in house
How it was run: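 Compounds, serially diluted 5-fold (twelve concentrations), were shaken for 90 min at 25° C with a mix of GST-MDM2 (4 nM final), Biotin-P53, anti-GST-Tb and SA-XL665. Buffer: 1×PBS, 0.1% BSA, 5 mM DTT, 1 mM AEBSF; signal read on a microplate reader.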

[2] = Pharmacokinetics in ICR mice after intravenous and intragastric administration; format: in vivo; details: for F*: PO 5 mg/kg vs IV 2 mg/kg, mean; for MRT last: read-out: MRT(0-t); for MRT inf: read-out: MRT(0-∞); for Vd: read-out: Vz
How it was run: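 Plasma concentration-time data, quantified by LC-MS/MS with a 1 ng/mL lower limit, gave AUC, t1/2, MRT, Cmax, Tmax, bioavailability, Vz and clearance. Overnight-fasted male ICR mice (three per route) received 2 mg/kg intravenously or 5 mg/kg intragastrically.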

[3] = ICR mice, IV 2 mg/kg, individual animals 301-303, 2 mg/kg
[4] = ICR mice, PO 5 mg/kg, individual animals 401-403, 5 mg/kg
[5] = male, ICR, mouse, plasma, iv, 2 mg/kg, ICR mice, IV 2 mg/kg, individual animals 301-303
[6] = male, ICR, mouse, plasma, iv, 2 mg/kg, ICR mice, IV 2 mg/kg, individual animals 301-303, read-out: AUC(0-t)
[7] = male, ICR, mouse, plasma, iv, 2 mg/kg, ICR mice, IV 2 mg/kg, individual animals 301-303, read-out: Cmax
[8] = male, ICR, mouse, plasma, iv, 2 mg/kg, ICR mice, IV 2 mg/kg, individual animals 301-303, read-out: t1/2 (converted)
[9] = male, ICR, mouse, plasma, iv, 2 mg/kg, ICR mice, IV 2 mg/kg, mean of 3 animals
[10] = male, ICR, mouse, plasma, iv, 2 mg/kg, ICR mice, IV 2 mg/kg, mean of 3 animals, read-out: AUC(0-t)
[11] = male, ICR, mouse, plasma, iv, 2 mg/kg, ICR mice, IV 2 mg/kg, mean of 3 animals, read-out: Cmax
[12] = male, ICR, mouse, plasma, iv, 2 mg/kg, ICR mice, IV 2 mg/kg, mean of 3 animals, read-out: Tmax
[13] = male, ICR, mouse, plasma, iv, 2 mg/kg, ICR mice, IV 2 mg/kg, mean of 3 animals, read-out: t1/2 (converted)
[14] = male, ICR, mouse, plasma, po, 5 mg/kg, ICR mice, PO 5 mg/kg, individual animals 401-403
[15] = male, ICR, mouse, plasma, po, 5 mg/kg, ICR mice, PO 5 mg/kg, individual animals 401-403, read-out: AUC(0-t)
[16] = male, ICR, mouse, plasma, po, 5 mg/kg, ICR mice, PO 5 mg/kg, individual animals 401-403, read-out: Tmax
[17] = male, ICR, mouse, plasma, po, 5 mg/kg, ICR mice, PO 5 mg/kg, individual animals 401-403, read-out: t1/2 (converted)
[18] = male, ICR, mouse, plasma, po, 5 mg/kg, ICR mice, PO 5 mg/kg, mean of 3 animals
[19] = male, ICR, mouse, plasma, po, 5 mg/kg, ICR mice, PO 5 mg/kg, mean of 3 animals, read-out: AUC(0-t)
[20] = male, ICR, mouse, plasma, po, 5 mg/kg, ICR mice, PO 5 mg/kg, mean of 3 animals, read-out: Cmax
[21] = male, ICR, mouse, plasma, po, 5 mg/kg, ICR mice, PO 5 mg/kg, mean of 3 animals, read-out: Tmax
[22] = male, ICR, mouse, plasma, po, 5 mg/kg, ICR mice, PO 5 mg/kg, mean of 3 animals, read-out: t1/2 (converted)
[23] = male, ICR, mouse, plasma, po, 5 mg/kg, oral intragastric administration 5 mg/kg, read-out: AUC0-t

T1 sequence (Q00987 whole entry): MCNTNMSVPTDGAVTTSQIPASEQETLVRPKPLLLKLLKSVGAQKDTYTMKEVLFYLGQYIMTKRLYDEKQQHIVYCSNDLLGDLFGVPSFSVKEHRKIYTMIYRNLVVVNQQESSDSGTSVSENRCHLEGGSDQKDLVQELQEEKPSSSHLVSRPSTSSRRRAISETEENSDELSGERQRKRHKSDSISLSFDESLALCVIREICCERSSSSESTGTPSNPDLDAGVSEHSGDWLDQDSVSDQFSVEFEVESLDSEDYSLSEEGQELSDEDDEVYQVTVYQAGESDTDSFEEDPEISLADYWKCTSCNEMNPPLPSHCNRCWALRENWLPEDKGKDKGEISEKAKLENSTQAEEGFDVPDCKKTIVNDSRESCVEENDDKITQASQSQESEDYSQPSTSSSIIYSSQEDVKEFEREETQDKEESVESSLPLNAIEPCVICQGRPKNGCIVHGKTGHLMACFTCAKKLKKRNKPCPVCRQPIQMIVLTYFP

For `CCOc1ncc(-c2nc3c(n2C(C)C)[C@@]2(C(=O)Nc4cc(Cl)ccc42)N(c2cc(Cl)cnc2C)C3=O)c(OC)n1` [Example S-134, (S)-6-chloro-5′-(5-chloro-2-methylpyridin-3-yl)-2′-(2-ethoxy-4-methoxypyrimidin-5-yl)-3′-isopropyl-3′H-spiro[dihydroindole-3,4′-pyrrolo[3,4-d]imidazole]-2,6′(5′H)-dione], the IC50 [1] was 82.2 nM, the IC50 (MDM2) was 2.6 nM and the “AUC(0-t)” value [2, 3] was 7289.25 ng·h/mL and 6534.27 ng·h/mL. The “AUC(0-∞)” value [2, 3] was 7419.12 ng·h/mL and 6880.52 ng·h/mL, the CL [2, 3] was 4.49 mL/min/kg and 4.84 mL/min/kg and the Cmax [2, 3] was 4224.01 ng/mL and 3408.57 ng/mL. The “MRT(0-t)” value [2, 3] was 1.28 h and 1.50 h, the “MRT(0-∞)” value [2, 3] was 1.39 h and 1.83 h and the Tmax [2, 3] was 0.08 h and 0.25 h. The Vz [2, 3] was 0.42 L/kg and 0.61 L/kg, the t1/2 [2, 3] was 1.07 h and 1.47 h and the “F*” value ([2]; ICR mice) was 47.70%. For the same molecule, the “AUC(0-t)” value [2, 4] was 7889.97 ng·h/mL and 4859.23 ng·h/mL, the “AUC(0-∞)” value [2, 4] was 8123.13 ng·h/mL and 4978.41 ng·h/mL and the Cmax [2, 4] was 3905.15 ng/mL and 3059.53 ng/mL and 1591.65 ng/mL. The “MRT(0-t)” value [2, 4] was 2.21 h, the “MRT(0-∞)” value [2, 4] was 2.28 h and 2.40 h and the Tmax [2, 4] was 0.25 h. The t1/2 [2, 4] was 1.54 h and 1.43 h, the AUC(0-inf) [2, 5] was 5060 ng·h/mL and the clearance [2, 5] was 6.59 mL/min/kg. It also gave an AUC(0-t) [2, 6] of 5020 ng·h/mL, a Cmax [2, 7] of 3520 ng/mL and an MRT last [2, 5] of 1.17 h. The MRT inf [2, 5] was 1.23 h, the Vd [2, 5] was 0.53 L/kg and the half-life [2, 8] was 0.93 h. It also gave an AUC(0-inf) [2, 9] of 6450 ng·h/mL, a clearance [2, 9] of 5.31 mL/min/kg and an AUC(0-t) [2, 10] of 6280 ng·h/mL. For the same molecule, the Cmax [2, 11] was 3720 ng/mL, the MRT last [2, 9] was 1.32 h and the MRT inf [2, 9] was 1.48 h. It also gave a Tmax [2, 12] of 0.14 h, a Vd [2, 9] of 0.52 L/kg and a half-life [2, 13] of 1.15 h. For the same molecule, the AUC(0-inf) [2, 14] was 9930 ng·h/mL, the AUC(0-t) [2, 15] was 9720 ng·h/mL and the MRT last [2, 14] was 2.04 h. The MRT inf [2, 14] was 2.21 h, the Tmax [2, 16] was 0.5 h and the half-life [2, 17] was 1.38 h. For the same molecule, the AUC(0-inf) [2, 18] was 7680 ng·h/mL, the AUC(0-t) [2, 19] was 7490 ng·h/mL and the Cmax [2, 20] was 2850 ng/mL. The MRT last [2, 18] was 2.1 h, the MRT inf [2, 18] was 2.29 h and the Tmax [2, 21] was 0.42 h. The half-life [2, 22] was 1.45 h, the AUC(0-t) [2, 23] was 7490 ng·h/mL and the half-life ([2]; male, ICR, mouse, plasma, po, 5 mg/kg, oral intragastric administration 5 mg/kg, read-out: half-life (converted)) was 1.45 h.
In the case of `COc1nc(N(C)C)ncc1-c1nc2c(n1C(C)C)[C@@]1(C(=O)Nc3cc(Cl)ccc31)N(c1cc(Cl)cnc1C)C2=O` [Example S-135, (S)-6-chloro-5′-(5-chloro-2-methylpyridin-3-yl)-2′-(2-(dimethylamino)-4-methoxypyrimidin-5-yl)-3′-isopropyl-3′H-spiro[dihydroindole-3,4′-pyrrolo[3,4-d]imidazole]-2,6′(5′H)-dione], the IC50 [1] is reported as 96.2 nM, the IC50 (MDM2) is reported as 1.36 nM and the “AUC(0-t)” value [2, 3] is reported as 7341.09 ng·h/mL and 6495.01 ng·h/mL. The “AUC(0-∞)” value [2, 3] was 7977.92 ng·h/mL and 7378.29 ng·h/mL, the CL [2, 3] was 4.18 mL/min/kg and 4.52 mL/min/kg and the Cmax [2, 3] was 3518.53 ng/mL and 3314.60 ng/mL. For the same molecule, the “MRT(0-t)” value [2, 3] was 1.66 h and 1.70 h, the “MRT(0-∞)” value [2, 3] was 2.21 h and 2.57 h and the Vz [2, 3] was 0.64 L/kg and 0.80 L/kg. The t1/2 [2, 3] was 1.78 h and 2.03 h, the “F*” value ([2]; ICR mice) was 48.91% and the “AUC(0-t)” value [2, 4] was 7012.03 ng·h/mL and 9412.84 ng·h/mL. For the same molecule, the “AUC(0-∞)” value [2, 4] was 7126.47 ng·h/mL and 9616.11 ng·h/mL, the Cmax [2, 4] was 2014.04 ng/mL and 2249.28 ng/mL and the “MRT(0-t)” value [2, 4] was 2.19 h and 2.43 h. The “MRT(0-∞)” value [2, 4] was 2.32 h and 2.59 h, the t1/2 [2, 4] was 1.27 h and 1.34 h and the AUC(0-inf) [2, 5] was 7840 ng·h/mL. It also gave a clearance [2, 5] of 4.25 mL/min/kg, an AUC(0-t) [2, 6] of 7270 ng·h/mL and a Cmax [2, 7] of 3900 ng/mL. It also gave an MRT last [2, 5] of 1.6 h, an MRT inf [2, 5] of 2.09 h and a Tmax ([2]; male, ICR, mouse, plasma, iv, 2 mg/kg, ICR mice, IV 2 mg/kg, individual animals 301-303, read-out: Tmax) of 0.08 h. For the same molecule, the Vd [2, 5] was 0.61 L/kg, the half-life [2, 8] was 1.65 h and the AUC(0-inf) [2, 9] was 7730 ng·h/mL. The clearance [2, 9] was 4.32 mL/min/kg, the AUC(0-t) [2, 10] was 7040 ng·h/mL and the Cmax [2, 11] was 3580 ng/mL. It also gave an MRT last [2, 9] of 1.65 h, an MRT inf [2, 9] of 2.29 h and a Tmax [2, 12] of 0.083 h. It also gave a Vd [2, 9] of 0.68 L/kg, a half-life [2, 13] of 1.82 h and an AUC(0-inf) [2, 14] of 9970 ng·h/mL. It also gave an AUC(0-t) [2, 15] of 9390 ng·h/mL, a Cmax ([2]; male, ICR, mouse, plasma, po, 5 mg/kg, ICR mice, PO 5 mg/kg, individual animals 401-403, read-out: Cmax) of 2160 ng/mL and an MRT last [2, 14] of 2.64 h. It also gave an MRT inf [2, 14] of 3.12 h, a Tmax [2, 16] of 1 h and a half-life [2, 17] of 1.87 h. The AUC(0-inf) [2, 18] was 8910 ng·h/mL, the AUC(0-t) [2, 19] was 8600 ng·h/mL and the Cmax [2, 20] was 2140 ng/mL. For the same molecule, the MRT last [2, 18] was 2.42 h, the MRT inf [2, 18] was 2.67 h and the Tmax [2, 21] was 1 h. It also gave a half-life [2, 22] of 1.49 h and an AUC(0-t) [2, 23] of 8600 ng·h/mL.
